Experiment: photoluminescence quantum yield (fraction); solvent given as SMILES

SMILES: CC1=[N+]2C(=C(c3ccc(N4CCOCC4)cc3)c3ccc(C)n3[B-]2(F)F)C=C1
- photoluminescence quantum yield (in C1CCCCC1): 0.35
- photoluminescence quantum yield (in CC(=O)C(C)(C)C): 0.002
- photoluminescence quantum yield (in CC(C)=O): 0.002
- photoluminescence quantum yield (in CCCCCC): 0.388
- photoluminescence quantum yield (in CCOC(C)=O): 0.008
- photoluminescence quantum yield (in CO): 0.005
- photoluminescence quantum yield (in Cc1ccccc1): 0.32
- photoluminescence quantum yield (in ClC(Cl)Cl): 0.11

SMILES: Cc1ccccc1/C(C#N)=C/c1ccc(N(C)C)cc1
- photoluminescence quantum yield (in C1CCOC1): 0.011
- photoluminescence quantum yield (in C1COCCO1): 0.01
- photoluminescence quantum yield (in CC#N): 0.014
- photoluminescence quantum yield (in CCCCCC): 0.012
- photoluminescence quantum yield (in CCCCCCC): 0.008
- photoluminescence quantum yield (in CCCCCO): 0.01
- photoluminescence quantum yield (in CCCCO): 0.006
- photoluminescence quantum yield (in CCCO): 0.008
- photoluminescence quantum yield (in CCO): 0.006
- photoluminescence quantum yield (in CCOC(C)=O): 0.007
- photoluminescence quantum yield (in CN(C)C=O): 0.015
- photoluminescence quantum yield (in CO): 0.005
- photoluminescence quantum yield (in CS(C)=O): 0.011
- photoluminescence quantum yield (in Cc1ccccc1): 0.021
- photoluminescence quantum yield (in ClC(Cl)Cl): 0.009

SMILES: O=C1Cc2cc3c(cc2CCCc2ccc(cc2)CCC3)CC(=O)Cc2ccc(c3nsnc23)C1
- photoluminescence quantum yield (in C1CCCCC1): 0.13
- photoluminescence quantum yield (in CC#N): 0.01
- photoluminescence quantum yield (in ClC(Cl)Cl): 0.05

SMILES: Cc1cc(C2=Cc3cccc[n+]3[B-](F)(F)O2)ccc1N(C)C
- photoluminescence quantum yield (in ClC(Cl)Cl): 0.688

SMILES: O=S(=O)([O-])c1ccc(O)c2ccccc12
- photoluminescence quantum yield (in C1COCCO1): 0.14
- photoluminescence quantum yield (in CC#N): 0.17
- photoluminescence quantum yield (in CC(C)O): 0.2
- photoluminescence quantum yield (in CCCCO): 0.2
- photoluminescence quantum yield (in CCO): 0.18
- photoluminescence quantum yield (in CCOC(C)=O): 0.14
- photoluminescence quantum yield (in CN(C)C=O): 0.14
- photoluminescence quantum yield (in CO): 0.16
- photoluminescence quantum yield (in CS(C)=O): 0.25

SMILES: CCCCN(CCCC)c1ccc2c(c1)C#CC#Cc1cc(C(F)(F)F)ccc1C#Cc1cc(c3cc1C#Cc1ccc(C(F)(F)F)cc1C#CC#Cc1cc(N(CCCC)CCCC)ccc1C#C3)C#C2
- photoluminescence quantum yield (in ClCCl): 0.23

SMILES: CCN(CC)c1ccc(C2=C3C(C)=CC(/C=C/c4ccc(OCCCN=[N+]=[N-])cc4)=[N+]3[B-](F)(F)n3c(C)cc(C)c32)cc1
- photoluminescence quantum yield (in CO): 0.82

SMILES: CC(C)[Si](C#Cc1ccc(C#C[Si](C(C)C)(C(C)C)C(C)C)c2nc3ccccc3nc12)(C(C)C)C(C)C
- photoluminescence quantum yield (in ClCCl): 0.02

SMILES: O=C([O-])c1c(Cl)c(Cl)c(Cl)c(Cl)c1-c1c2cc(Cl)c(=O)c(Cl)c-2oc2c(Cl)c(O)c(Cl)cc12
- photoluminescence quantum yield (in O): 0.628

SMILES: CN(C)c1ccc(/C=C/c2cc(/C=C/c3ccc(N(C)C)cc3)nc(/C=C/c3ccc(N(c4ccccc4)c4ccccc4)cc3)n2)cc1
- photoluminescence quantum yield (in ClCCl): 0.59

SMILES: CN(C)c1ccc(C(=Cc2ccc(C#N)cc2)c2ccc(N(C)C)cc2)cc1
- photoluminescence quantum yield (in C1CCOC1): 0.056

SMILES: CC(C)[Si](C#Cc1ccc(C#C[Si](C(C)C)(C(C)C)C(C)C)c2nc3c(ccc4cc5ccccc5cc43)nc12)(C(C)C)C(C)C
- photoluminescence quantum yield (in CCCCCC): 0.37

SMILES: COc1ccc(NC(=O)C(C(=O)Nc2ccc(OC)cc2)C(c2cc(F)ccc2O)c2c[nH]c3ccc(OC)cc23)cc1 (stereo unspecified)
- photoluminescence quantum yield (in CS(C)=O): 0.018

SMILES: CCCCCn1c2ccc(S(=O)(=O)O)cc2c(=O)c2cc(S(=O)(=O)O)ccc21
- photoluminescence quantum yield (in CS(C)=O): 0.7
- photoluminescence quantum yield (in O): 0.92

SMILES: CN(C)c1ccc(/C=C2\CC/C(=C\c3ccc(C#N)cc3)C2=O)cc1
- photoluminescence quantum yield (in C1CCOC1): 0.027
- photoluminescence quantum yield (in CC#N): 0.0036
- photoluminescence quantum yield (in CC(C)=O): 0.0095
- photoluminescence quantum yield (in CC(C)O): 0.026
- photoluminescence quantum yield (in CCCCO): 0.017
- photoluminescence quantum yield (in CCCCOC(C)=O): 0.14
- photoluminescence quantum yield (in CCCO): 0.013
- photoluminescence quantum yield (in CCO): 0.0061
- photoluminescence quantum yield (in CCOC(=O)c1ccccc1): 0.18
- photoluminescence quantum yield (in CCOC(C)=O): 0.09
- photoluminescence quantum yield (in CCOCC): 0.074
- photoluminescence quantum yield (in CN(C)C=O): 0.0066
- photoluminescence quantum yield (in CO): 0.0027
- photoluminescence quantum yield (in CS(C)=O): 0.0074
- photoluminescence quantum yield (in Cc1ccccc1): 0.05
- photoluminescence quantum yield (in ClC(Cl)(Cl)Cl): 0.019
- photoluminescence quantum yield (in ClC(Cl)Cl): 0.3
- photoluminescence quantum yield (in ClCCl): 0.17
- photoluminescence quantum yield (in Clc1ccccc1Cl): 0.29
- photoluminescence quantum yield (in O=C1CCCC1): 0.034
- photoluminescence quantum yield (in S=C=S): 0.034
- photoluminescence quantum yield (in c1ccccc1): 0.066
- photoluminescence quantum yield (in c1ccncc1): 0.051

SMILES: Cc1cc(C)cc(C)c1
- photoluminescence quantum yield (in C1CCCCC1): 0.27

SMILES: Cc1ccc(C#Cc2cc3ccccc3oc2=O)cc1
- photoluminescence quantum yield (in CC#N): 0.73
